# Laboratory results as given in patent US20240360177A1, “PEPTIDES WITH ANTIMICROBIAL ACTIVITIES” (priority 2021, published 2024).
# Starred links: 1 amine or outer side, 2 acyl side, 3 side chain; linkers in the order of their positions; H or OH if unused. Non-standard residues stand in square brackets, D forms with d. Residues, ends and D or L forms follow the SMILES beside them. *: point of attachment. Cyclohexanecarbonyl = O=C(C1CCCCC1)*; Morpholinoacetyl = O=C(CN1CCOCC1)*; NH(4-F-phenyl) = Fc1ccc(N*)cc1; αMeL = CC(C)C[C@](C)(N)C(=O)O; CO = O=C([*:1])[*:2]; AEA = NCCOCC(=O)O; Ms = CS(=O)(=O)*
# Columns and labels:
# Settings in all cases: 24 h
# C. albicans = tested on: C. albicans
# C. glabrata = tested on: C. glabrata
# C. parapsilosis = tested on: C. parapsilosis
# C. krusei = tested on: C. krusei
# C. auris = tested on: C. auris
# C. tropicalis = tested on: C. tropicalis
# C. dubliniensis = tested on: C. dubliniensis
SMILES,MIC C. albicans (C. albicans),MIC C. glabrata (C. glabrata),MIC C. parapsilosis (C. parapsilosis),MIC C. krusei (C. krusei),MIC C. auris (C. auris),MIC C. tropicalis (C. tropicalis),MIC C. dubliniensis (C. dubliniensis)
"CC(C)C[C@](C)(NC(=O)[C@H](CCCNC(=N)N)NC(=O)[C@@H](CCCNC(=N)N)NC(=O)[C@H](CCCNC(=N)N)NC(=O)[C@@H](CCCNC(=N)N)NC(=O)[C@](C)(CC(C)C)NC(=O)[C@@H](CCCNC(=N)N)NC(=O)[C@H](CCCNC(=N)N)NC(=O)[C@@H](CCCNC(=N)N)NC(=O)[C@](C)(CC(C)C)NC(=O)[C@@H](CCCNC(=N)N)NC(=O)[C@H](CCCNC(=N)N)NC(=O)[C@H](N)CCCNC(=N)N)C(=O)N[C@H](CCCNC(=N)N)C(=O)N[C@@H](CCCNC(=N)N)C(=O)N[C@H](CCCNC(=N)N)C(=O)N[C@@H](CCCNC(=N)N)C(N)=O [SEQ ID NO: 37, rRr-Leu(Me)-rRr-Leu(Me)-rRrR-Leu(Me)-rRrR-NH2] (H-[dR]R[dR][αMeL][dR]R[dR][αMeL][dR]R[dR]R[αMeL][dR]R[dR]R-NH2)",0.5 µg/mL,0.5 µg/mL,0.5 µg/mL,1 µg/mL,1 µg/mL,0.5 µg/mL,0.5 µg/mL
"N=C(N)NCCC[C@@H](N)C(=O)N[C@@H](CCCNC(=N)N)C(=O)N[C@H](CCCNC(=N)N)C(=O)NCCNCC(=O)N[C@H](CCCNC(=N)N)C(=O)N[C@@H](CCCNC(=N)N)C(=O)N[C@H](CCCNC(=N)N)C(=O)NCCNCC(=O)N[C@H](CCCNC(=N)N)C(=O)N[C@@H](CCCNC(=N)N)C(=O)N[C@H](CCCNC(=N)N)C(=O)N[C@@H](CCCNC(=N)N)C(=O)NCCNCC(=O)N[C@H](CCCNC(=N)N)C(=O)N[C@@H](CCCNC(=N)N)C(=O)N[C@H](CCCNC(=N)N)C(=O)N[C@@H](CCCNC(=N)N)C(N)=O [SEQ ID NO: 46, rRr-(Aeg)-rRr-(Aeg)-rRrR-(Aeg)-rRrR-NH2]",0.5 µg/mL,1 µg/mL,0.25 µg/mL,0.5 µg/mL,8 µg/mL,0.5 µg/mL,0.5 µg/mL
"N=C(N)NCCC[C@@H](N)C(=O)N[C@@H](CCCNC(=N)N)C(=O)N[C@H](CCCNC(=N)N)C(=O)NCCOCC(=O)N[C@H](CCCNC(=N)N)C(=O)N[C@@H](CCCNC(=N)N)C(=O)N[C@H](CCCNC(=N)N)C(=O)NCCOCC(=O)N[C@H](CCCNC(=N)N)C(=O)N[C@@H](CCCNC(=N)N)C(=O)N[C@H](CCCNC(=N)N)C(=O)N[C@@H](CCCNC(=N)N)C(=O)NCCOCC(=O)N[C@H](CCCNC(=N)N)C(=O)N[C@@H](CCCNC(=N)N)C(=O)N[C@H](CCCNC(=N)N)C(=O)N[C@@H](CCCNC(=N)N)C(N)=O [SEQ ID NO: 52, rRr-(Aea)-rRr-(Aea)-rRrR-(Aea)-rRrR-NH2] (H-[dR]R[dR][AEA][dR]R[dR][AEA][dR]R[dR]R[AEA][dR]R[dR]R-NH2)",0.5 µg/mL,0.5 µg/mL,0.25 µg/mL,0.5 µg/mL,1 µg/mL,0.5 µg/mL,0.5 µg/mL
"N=C(N)NCCC[C@@H](N)C(=O)N[C@@H](CCCNC(=N)N)C(=O)N[C@H](CCCNC(=N)N)C(=O)N1CCC[C@H]1C(=O)N[C@H](CCCNC(=N)N)C(=O)N[C@@H](CCCNC(=N)N)C(=O)N[C@H](CCCNC(=N)N)C(=O)N1CCC[C@H]1C(=O)N[C@H](CCCNC(=N)N)C(=O)N[C@@H](CCCNC(=N)N)C(=O)N[C@H](CCCNC(=N)N)C(=O)N[C@@H](CCCNC(=N)N)C(=O)N1CCC[C@H]1C(=O)N[C@H](CCCNC(=N)N)C(=O)N[C@@H](CCCNC(=N)N)C(=O)N[C@H](CCCNC(=N)N)C(=O)N[C@@H](CCCNC(=N)N)C(=O)O [SEQ ID NO: 54, rRr-P-rRr-P-rRrR-P-rRrR] (H-[dR]R[dR]P[dR]R[dR]P[dR]R[dR]RP[dR]R[dR]R-OH)",0.25 µg/mL,0.5 µg/mL,0.25 µg/mL,0.5 µg/mL,2 µg/mL,0.25 µg/mL,0.5 µg/mL

# The remaining lines, values ahead:
MIC C. albicans (C. albicans),MIC C. glabrata (C. glabrata),MIC C. parapsilosis (C. parapsilosis),MIC C. krusei (C. krusei),MIC C. auris (C. auris),MIC C. tropicalis (C. tropicalis),MIC C. dubliniensis (C. dubliniensis),SMILES
0.5 µg/mL,0.5 µg/mL,0.25 µg/mL,1 µg/mL,0.5 µg/mL,0.5 µg/mL,0.5 µg/mL,"CS(=O)(=O)N[C@H](CCCNC(=N)N)C(=O)N[C@@H](CCCNC(=N)N)C(=O)N[C@H](CCCNC(=N)N)C(=O)N1CCC[C@H]1C(=O)N[C@H](CCCNC(=N)N)C(=O)N[C@@H](CCCNC(=N)N)C(=O)N[C@H](CCCNC(=N)N)C(=O)N1CCC[C@H]1C(=O)N[C@H](CCCNC(=N)N)C(=O)N[C@@H](CCCNC(=N)N)C(=O)N[C@H](CCCNC(=N)N)C(=O)N[C@@H](CCCNC(=N)N)C(=O)N1CCC[C@H]1C(=O)N[C@H](CCCNC(=N)N)C(=O)N[C@@H](CCCNC(=N)N)C(=O)N[C@H](CCCNC(=N)N)C(=O)N[C@@H](CCCNC(=N)N)C(N)=O [SEQ ID NO: 56, CH3SO2NH-rRr-P-rRr-P-rRrR-P-rRrR-NH2] (Ms-[dR]R[dR]P[dR]R[dR]P[dR]R[dR]RP[dR]R[dR]R-NH2)"
0.5 µg/mL,0.5 µg/mL,0.5 µg/mL,1 µg/mL,0.5 µg/mL,0.5 µg/mL,0.5 µg/mL,"N=C(N)NCCC[C@H](NC(=O)[C@@H](CCCNC(=N)N)NC(=O)[C@H](CCCNC(=N)N)NC(=O)[C@@H](CCCNC(=N)N)NC(=O)[C@@H]1CCCN1C(=O)[C@H](CCCNC(=N)N)NC(=O)[C@@H](CCCNC(=N)N)NC(=O)[C@H](CCCNC(=N)N)NC(=O)[C@@H](CCCNC(=N)N)NC(=O)[C@@H]1CCCN1C(=O)[C@@H](CCCNC(=N)N)NC(=O)[C@H](CCCNC(=N)N)NC(=O)[C@@H](CCCNC(=N)N)NC(=O)[C@@H]1CCCN1C(=O)[C@@H](CCCNC(=N)N)NC(=O)[C@H](CCCNC(=N)N)NC(=O)[C@@H](CCCNC(=N)N)NC(=O)Nc1ccc(F)cc1)C(N)=O [SEQ ID NO: 57, 4-FPhNHC(O)NH-rRr-P-rRr-P-rRrR-P-rRrR-NH2] ({NH(4-F-phenyl)-CO}-[dR]R[dR]P[dR]R[dR]P[dR]R[dR]RP[dR]R[dR]R-NH2)"
1 µg/mL,1 µg/mL,0.5 µg/mL,2 µg/mL,1 µg/mL,1 µg/mL,0.5 µg/mL,"N=C(N)NCCC[C@H](NC(=O)[C@@H](CCCNC(=N)N)NC(=O)[C@H](CCCNC(=N)N)NC(=O)[C@@H](CCCNC(=N)N)NC(=O)[C@@H]1CCCN1C(=O)[C@H](CCCNC(=N)N)NC(=O)[C@@H](CCCNC(=N)N)NC(=O)[C@H](CCCNC(=N)N)NC(=O)[C@@H](CCCNC(=N)N)NC(=O)[C@@H]1CCCN1C(=O)[C@@H](CCCNC(=N)N)NC(=O)[C@H](CCCNC(=N)N)NC(=O)[C@@H](CCCNC(=N)N)NC(=O)[C@@H]1CCCN1C(=O)[C@@H](CCCNC(=N)N)NC(=O)[C@H](CCCNC(=N)N)NC(=O)[C@@H](CCCNC(=N)N)NC(=O)C1CCCCC1)C(N)=O [SEQ ID NO: 58, cHexC(O)NH-rRr-P-rRr-P-rRrR-P-rRrR-NH2] (Cyclohexanecarbonyl-[dR]R[dR]P[dR]R[dR]P[dR]R[dR]RP[dR]R[dR]R-NH2; N-terminus and C-terminus assumed)"
0.5 µg/mL,0.5 µg/mL,0.5 µg/mL,2 µg/mL,4 µg/mL,0.5 µg/mL,0.5 µg/mL,"N=C(N)NCCC[C@H](NC(=O)[C@@H](CCCNC(=N)N)NC(=O)[C@H](CCCNC(=N)N)NC(=O)[C@@H](CCCNC(=N)N)NC(=O)[C@@H]1CCCN1C(=O)[C@H](CCCNC(=N)N)NC(=O)[C@@H](CCCNC(=N)N)NC(=O)[C@H](CCCNC(=N)N)NC(=O)[C@@H](CCCNC(=N)N)NC(=O)[C@@H]1CCCN1C(=O)[C@@H](CCCNC(=N)N)NC(=O)[C@H](CCCNC(=N)N)NC(=O)[C@@H](CCCNC(=N)N)NC(=O)[C@@H]1CCCN1C(=O)[C@@H](CCCNC(=N)N)NC(=O)[C@H](CCCNC(=N)N)NC(=O)[C@@H](CCCNC(=N)N)NC(=O)CN1CCOCC1)C(N)=O [SEQ ID NO: 59, MorpholineCH2C(O)NH-rRr-P-rRr-P-rRrR-P-rRrR-NH2] (Morpholinoacetyl-[dR]R[dR]P[dR]R[dR]P[dR]R[dR]RP[dR]R[dR]R-NH2)"
0.25 µg/mL,0.5 µg/mL,0.25 µg/mL,0.5 µg/mL,4 µg/mL,0.5 µg/mL,0.25 µg/mL,"N=C(N)NCCC[C@@H](N)C(=O)N[C@@H](CCCNC(=N)N)C(=O)N[C@H](CCCNC(=N)N)C(=O)N[C@@H](CCCNC(=N)N)C(=O)N1CCC[C@H]1C(=O)N[C@H](CCCNC(=N)N)C(=O)N[C@@H](CCCNC(=N)N)C(=O)N[C@H](CCCNC(=N)N)C(=O)N[C@@H](CCCNC(=N)N)C(=O)N1CCC[C@H]1C(=O)N[C@H](CCCNC(=N)N)C(=O)N[C@@H](CCCNC(=N)N)C(=O)N[C@H](CCCNC(=N)N)C(=O)N[C@@H](CCCNC(=N)N)C(N)=O [SEQ ID NO: 67, rRrR-P-rRrR-P-rRrR-NH2] (H-[dR]R[dR]RP[dR]R[dR]RP[dR]R[dR]R-NH2)"
